The target in assay [1] is Serine/threonine-protein phosphatase PP1-alpha catalytic subunit (Homo sapiens, UniProt P62136). The assay is described as follows: PP1 phosphatase inhibitors, dose response, biochemical, fluorescence (AID 2394).
Assay [2] deals with Luciferin 4-monooxygenase (Photinus pyralis, UniProt P08659). Briefly: firefly luciferase enzyme inhibitors, dose response, biochemical, luminescence (AID 1891).
The subject of assay [3] is BJ. The assay is described as follows: cytotoxicity toward BJ-TERT-LT-ST fibroblasts, dose response, cell-based, RAS-independent, luminescence (AID 1935).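 Also: BJ fibroblasts immortalized with TERT plus LT and ST oncogenes.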 Format: functional. The settings on record: Homo sapiens.
Assay [4] is described as follows: THP-1 cell cytotoxicity, dose response, cytotoxicity control for non-replicating M. tuberculosis project (AID 489025). The class given is functional.
A short description of a further assay: cells. Format: functional.
The test system of assay [5] is BJ. Briefly: cytotoxicity toward Ras-transformed BJeLR fibroblasts, dose response, cell-based, alamar blue fluorescence, cherrypicked samples (AID 2631).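 Also: confirmatory dose-response assay in RAS-dependent BJ fibroblasts engineered with TERT, LT and ST, with cytotoxicity read by fluorescence.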 Format: functional. Conditions: Homo sapiens. In general terms: The colour change of resazurin is a common sign of viable cells or microbes.
A further assay has as its system INS1. The assay is described as follows: beta cell apoptosis inhibitors, cytokine rescue, dose response, luminescence, retest (AID 449756).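 Also: cell death triggered by IL-1 beta plus TNF-alpha plus IFN-gamma mixture; protective hits raise ATP signal compared with cytokine alone wells.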 Format: functional, cell-based. The settings on record: Rattus norvegicus.
Another assay has as its target Genome polyprotein (dengue virus type 2, UniProt P29990). Briefly: Dengue-2 NS5 methyltransferase inhibitors, primary screen, biochemical, confirmation dose response (AID 588689). The class given is functional.
For another assay, the target named is T1, Caspase-6 (Homo sapiens, UniProt P55212).
T1 sequence (P55212 whole entry): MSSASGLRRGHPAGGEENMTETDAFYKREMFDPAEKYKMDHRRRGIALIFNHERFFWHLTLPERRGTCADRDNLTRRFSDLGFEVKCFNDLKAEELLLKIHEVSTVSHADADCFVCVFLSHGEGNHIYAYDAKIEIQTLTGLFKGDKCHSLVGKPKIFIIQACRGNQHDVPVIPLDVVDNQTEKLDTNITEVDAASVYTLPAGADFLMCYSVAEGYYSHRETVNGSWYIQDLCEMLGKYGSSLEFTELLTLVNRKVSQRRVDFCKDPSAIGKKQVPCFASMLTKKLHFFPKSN
The assay is described as follows: human caspase-6 inhibitors, dose response, biochemical, VEID-R110 fluorescence, cherry-pick (AID 720632).

In another assay the target is Caspase-9 (Homo sapiens, UniProt P55211). The assay is described as follows: caspase-9 enzyme inhibition, dose response, selectivity assay for caspase-6 inhibitor project, biochemical, fluorescence, plate reader, cherry-picked samples (AID 743293).
Assay [6] in a line: NIH-3T3 fibroblast cytotoxicity, dose response, cytotoxicity control, cell-based, fluorescence, Alamar Blue, secondary assay (AID 2327).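 Also: NIH-3T3 mouse fibroblasts cultured with fluconazole at 8 µg/mL.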 Format: functional.
Assay [7] in a line: inhibitors of SNCA 5'UTR-driven reporter translation, confirmation, H4 neuroglioma cells, luminescence (AID 1988). Format: functional, cell-based.
The test system of another assay is HEK293. The assay is described as follows: HEK cell cytotoxicity by LDH release, dose response, cytotoxicity control for IDE activator project, fluorescence, HEK cells (AID 588440).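 Also: cytotoxicity by LDH release measuring loss of membrane integrity.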 Format: functional, cell-based. Conditions: Homo sapiens. (LDH leaks from cells whose membrane has failed.)
A short description of assay [8]: HepG2 cell cytotoxicity, dose response, cytotoxicity control for Shn3 inhibitor project, CellTiter-Glo, cherry-picked (AID 624134). Format: functional, cell-based.
Assay [9] can be described thus: non-specific cell cytotoxicity, dose response, cytotoxicity control for PAX8 inhibitor project, plate reader, dry powder samples (AID 743021). Format: functional, cell-based.
The target of the next assay is Nonstructural protein 1 (Influenza A virus, UniProt Q194T2). The class given is functional, Influenza A virus (A/California/07/2009(H1N1)).
Assay [10] has as its target Ribosomal protein S6 kinase alpha-3 (Homo sapiens, UniProt P51812). The class given is functional.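 Also: measured within a kinome-wide profiling panel.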
The target in assay [11] is Phosphorylase b kinase gamma catalytic chain, liver/testis isoform (Homo sapiens, UniProt P15735). The class given is functional.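 Also: PHKG2 measured as one member of a kinome-wide kinase panel.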
Assay [12] concerns the target MAP kinase-activated protein kinase 5 (Homo sapiens, UniProt Q8IW41). Format: functional.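 Also: measured as one member of a kinome panel.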
Assay [13] addresses Cell division cycle 7-related protein kinase (Homo sapiens, UniProt O00311). The class given is functional.
Assay [14] deals with Casein kinase II subunit alpha (Homo sapiens, UniProt P68400). Format: functional.
Assay [15] deals with Fibroblast growth factor receptor 1 (Homo sapiens, UniProt P11362). Format: functional.
Assay [16] has as its target Mitogen-activated protein kinase 9 (Homo sapiens, UniProt P45984). Format: functional.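 Also: value from a kinome panel profiling assay, MAPK9 panel entry.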
The target of assay [17] is Tyrosine-protein kinase Blk (Homo sapiens, UniProt P51451). Format: functional.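 Also: obtained as one member of a kinome-wide kinase assay panel.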
For assay [18], the target named is High affinity nerve growth factor receptor (Homo sapiens, UniProt P04629). Format: functional.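 Also: NTRK1 tested as one member of a kinome-wide profiling panel.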
For the next assay, the target named is Insulin receptor (Homo sapiens, UniProt P06213). The class given is functional.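 Also: insulin receptor kinase tested as one member of a kinome-wide kinase panel.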
Assay [19] has as its target Proto-oncogene tyrosine-protein kinase Src (Homo sapiens, UniProt P12931). Format: functional.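 Also: SRC entry within a kinome-wide kinase profiling panel.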
Assay [20] concerns the target Mitogen-activated protein kinase kinase kinase kinase 2 (Homo sapiens, UniProt Q12851). Format: functional.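 Also: measured as one member of a kinome-wide kinase panel, with MAP4K2 as the panel entry.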
In assay [21] the target is Dual specificity tyrosine-phosphorylation-regulated kinase 3 (Homo sapiens, UniProt O43781). Format: functional.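 Also: measured as one member of a broad kinase panel.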
In assay [22] the target is MAP kinase-activated protein kinase 3 (Homo sapiens, UniProt Q16644). The class given is functional.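 Also: value comes from a kinome-wide profiling panel in which MAPKAPK3 is one of the panel members.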
For assay [23], the target named is Tyrosine-protein kinase ABL1 (Homo sapiens, UniProt P00519). The class given is functional.
Assay [24] deals with MAP kinase-interacting serine/threonine-protein kinase 2 (Homo sapiens, UniProt Q9HBH9). Format: functional.
For assay [25], the target named is Cyclin-dependent kinase 5 (Homo sapiens, UniProt Q00535). Format: functional.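 Also: CDK5 measured as one member of a kinase profiling panel.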
A further assay addresses Ephrin type-A receptor 2 (Homo sapiens, UniProt P29317). Format: functional.
Assay [26] concerns the target cAMP-dependent protein kinase catalytic subunit PRKX (Homo sapiens, UniProt P51817). Format: functional.
The next assay deals with Focal adhesion kinase 1 (Homo sapiens, UniProt Q05397). The class given is functional.
The target in assay [27] is Calcium/calmodulin-dependent protein kinase type 1 (Homo sapiens, UniProt Q14012). Format: functional.
In assay [28] the target is Serine/threonine-protein kinase PLK1 (Homo sapiens, UniProt P53350). Format: functional.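 Also: PLK1 measured as one member of a kinome-wide profiling panel.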
For assay [29], the target named is Mitogen-activated protein kinase kinase kinase kinase 4 (Homo sapiens, UniProt O95819). The class given is functional.

The source made the active and inactive calls.

Chain of Ephrin type-A receptor 2 (P29317 whole entry): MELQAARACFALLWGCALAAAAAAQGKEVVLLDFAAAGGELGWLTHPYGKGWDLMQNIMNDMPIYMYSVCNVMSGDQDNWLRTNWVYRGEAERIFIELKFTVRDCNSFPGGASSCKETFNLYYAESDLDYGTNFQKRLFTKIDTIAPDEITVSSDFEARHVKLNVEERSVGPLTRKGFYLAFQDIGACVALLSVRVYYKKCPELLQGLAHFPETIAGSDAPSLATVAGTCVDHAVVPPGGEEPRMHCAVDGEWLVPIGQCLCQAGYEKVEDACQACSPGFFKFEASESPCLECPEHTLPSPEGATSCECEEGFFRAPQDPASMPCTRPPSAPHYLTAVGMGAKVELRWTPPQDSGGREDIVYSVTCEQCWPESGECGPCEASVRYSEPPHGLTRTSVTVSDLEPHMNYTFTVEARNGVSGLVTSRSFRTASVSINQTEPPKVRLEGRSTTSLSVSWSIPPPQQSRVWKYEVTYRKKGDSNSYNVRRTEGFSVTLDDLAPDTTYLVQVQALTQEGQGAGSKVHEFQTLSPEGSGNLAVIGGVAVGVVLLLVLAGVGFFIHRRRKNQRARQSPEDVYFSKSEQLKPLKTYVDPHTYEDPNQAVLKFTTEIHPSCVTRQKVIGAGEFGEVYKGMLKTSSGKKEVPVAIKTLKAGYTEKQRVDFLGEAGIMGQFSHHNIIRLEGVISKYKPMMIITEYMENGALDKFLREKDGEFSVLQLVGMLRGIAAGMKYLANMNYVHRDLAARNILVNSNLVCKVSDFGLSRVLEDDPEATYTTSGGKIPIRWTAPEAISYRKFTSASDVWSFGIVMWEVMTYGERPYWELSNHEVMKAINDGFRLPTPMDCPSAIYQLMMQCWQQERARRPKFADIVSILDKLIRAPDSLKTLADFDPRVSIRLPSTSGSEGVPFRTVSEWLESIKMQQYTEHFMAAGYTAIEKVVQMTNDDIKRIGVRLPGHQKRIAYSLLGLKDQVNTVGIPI
Chain of Nonstructural protein 1 (Q194T2 whole entry): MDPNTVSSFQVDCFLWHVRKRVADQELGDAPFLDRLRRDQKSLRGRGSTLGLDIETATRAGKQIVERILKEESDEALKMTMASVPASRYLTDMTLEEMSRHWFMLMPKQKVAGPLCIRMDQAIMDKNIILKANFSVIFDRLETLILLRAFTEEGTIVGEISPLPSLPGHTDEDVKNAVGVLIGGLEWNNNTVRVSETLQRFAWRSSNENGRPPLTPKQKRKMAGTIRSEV
Chain of Tyrosine-protein kinase ABL1 (P00519 whole entry): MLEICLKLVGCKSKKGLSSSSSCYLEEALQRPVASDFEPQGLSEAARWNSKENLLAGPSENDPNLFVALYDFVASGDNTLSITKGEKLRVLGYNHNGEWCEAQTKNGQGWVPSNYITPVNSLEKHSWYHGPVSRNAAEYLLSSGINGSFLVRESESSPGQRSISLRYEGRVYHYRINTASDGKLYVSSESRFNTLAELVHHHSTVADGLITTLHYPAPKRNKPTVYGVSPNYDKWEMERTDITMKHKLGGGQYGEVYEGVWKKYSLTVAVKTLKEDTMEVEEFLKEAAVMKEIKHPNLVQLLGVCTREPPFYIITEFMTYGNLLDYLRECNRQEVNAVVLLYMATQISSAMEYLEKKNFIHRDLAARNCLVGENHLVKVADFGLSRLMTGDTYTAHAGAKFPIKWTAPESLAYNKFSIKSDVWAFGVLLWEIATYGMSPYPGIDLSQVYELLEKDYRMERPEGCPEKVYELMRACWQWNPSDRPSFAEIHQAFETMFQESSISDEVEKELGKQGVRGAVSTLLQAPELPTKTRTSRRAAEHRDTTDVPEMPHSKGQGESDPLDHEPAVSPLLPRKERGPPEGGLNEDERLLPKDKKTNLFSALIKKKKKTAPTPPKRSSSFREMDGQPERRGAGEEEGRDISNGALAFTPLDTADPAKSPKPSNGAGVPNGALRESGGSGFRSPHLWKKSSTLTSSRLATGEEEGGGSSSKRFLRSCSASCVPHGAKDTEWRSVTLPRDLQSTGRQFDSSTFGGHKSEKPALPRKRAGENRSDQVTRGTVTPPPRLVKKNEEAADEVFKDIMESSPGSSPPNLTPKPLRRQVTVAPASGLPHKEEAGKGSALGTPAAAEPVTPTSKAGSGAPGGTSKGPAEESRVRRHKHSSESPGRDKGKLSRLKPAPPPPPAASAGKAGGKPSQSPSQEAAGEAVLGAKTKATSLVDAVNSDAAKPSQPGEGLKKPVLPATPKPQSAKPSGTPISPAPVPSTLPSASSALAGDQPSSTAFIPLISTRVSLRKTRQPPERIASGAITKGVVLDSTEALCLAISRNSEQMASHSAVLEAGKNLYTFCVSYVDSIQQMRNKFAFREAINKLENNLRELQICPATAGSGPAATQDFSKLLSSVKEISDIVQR
Chain of Cell division cycle 7-related protein kinase (O00311 whole entry): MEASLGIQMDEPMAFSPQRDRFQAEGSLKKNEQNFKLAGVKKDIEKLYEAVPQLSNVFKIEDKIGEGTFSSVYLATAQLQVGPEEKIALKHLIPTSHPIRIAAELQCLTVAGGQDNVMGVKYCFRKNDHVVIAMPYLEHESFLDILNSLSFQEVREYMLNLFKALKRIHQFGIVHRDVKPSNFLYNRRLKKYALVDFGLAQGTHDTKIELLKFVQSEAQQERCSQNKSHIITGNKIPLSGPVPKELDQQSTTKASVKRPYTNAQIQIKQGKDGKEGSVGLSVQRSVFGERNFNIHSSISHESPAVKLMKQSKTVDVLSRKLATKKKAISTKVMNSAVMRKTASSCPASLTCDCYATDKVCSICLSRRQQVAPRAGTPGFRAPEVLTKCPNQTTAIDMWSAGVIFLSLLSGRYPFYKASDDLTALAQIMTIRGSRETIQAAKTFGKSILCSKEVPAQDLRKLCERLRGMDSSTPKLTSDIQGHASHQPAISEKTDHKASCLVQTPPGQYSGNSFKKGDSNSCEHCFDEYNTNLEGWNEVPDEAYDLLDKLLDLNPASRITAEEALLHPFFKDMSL
Chain of Genome polyprotein (P29990 2492-3391 limits assumed): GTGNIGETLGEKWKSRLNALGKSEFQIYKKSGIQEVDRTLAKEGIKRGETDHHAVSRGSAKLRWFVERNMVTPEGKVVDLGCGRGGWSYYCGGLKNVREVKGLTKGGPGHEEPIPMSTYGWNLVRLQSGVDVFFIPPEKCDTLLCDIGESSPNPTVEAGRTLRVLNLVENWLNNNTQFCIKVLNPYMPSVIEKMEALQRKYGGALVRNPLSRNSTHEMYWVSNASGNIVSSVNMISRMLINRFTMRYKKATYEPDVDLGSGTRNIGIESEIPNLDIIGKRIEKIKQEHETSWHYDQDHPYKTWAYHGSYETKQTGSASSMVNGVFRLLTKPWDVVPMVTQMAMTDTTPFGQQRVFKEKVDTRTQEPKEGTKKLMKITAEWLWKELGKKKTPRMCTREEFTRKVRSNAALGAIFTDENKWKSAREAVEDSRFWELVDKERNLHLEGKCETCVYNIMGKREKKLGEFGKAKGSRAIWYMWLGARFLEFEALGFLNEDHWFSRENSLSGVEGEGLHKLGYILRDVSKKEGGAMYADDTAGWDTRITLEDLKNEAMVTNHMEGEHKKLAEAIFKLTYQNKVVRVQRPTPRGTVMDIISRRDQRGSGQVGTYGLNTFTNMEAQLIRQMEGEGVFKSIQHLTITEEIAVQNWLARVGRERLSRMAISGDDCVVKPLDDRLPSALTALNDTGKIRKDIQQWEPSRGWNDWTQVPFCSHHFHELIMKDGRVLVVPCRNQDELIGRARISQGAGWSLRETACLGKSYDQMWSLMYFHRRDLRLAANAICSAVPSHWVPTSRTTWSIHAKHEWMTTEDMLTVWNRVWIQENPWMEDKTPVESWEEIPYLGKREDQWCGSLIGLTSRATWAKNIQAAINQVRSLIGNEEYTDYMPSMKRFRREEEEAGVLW
Chain of Serine/threonine-protein kinase PLK1 (P53350 whole entry): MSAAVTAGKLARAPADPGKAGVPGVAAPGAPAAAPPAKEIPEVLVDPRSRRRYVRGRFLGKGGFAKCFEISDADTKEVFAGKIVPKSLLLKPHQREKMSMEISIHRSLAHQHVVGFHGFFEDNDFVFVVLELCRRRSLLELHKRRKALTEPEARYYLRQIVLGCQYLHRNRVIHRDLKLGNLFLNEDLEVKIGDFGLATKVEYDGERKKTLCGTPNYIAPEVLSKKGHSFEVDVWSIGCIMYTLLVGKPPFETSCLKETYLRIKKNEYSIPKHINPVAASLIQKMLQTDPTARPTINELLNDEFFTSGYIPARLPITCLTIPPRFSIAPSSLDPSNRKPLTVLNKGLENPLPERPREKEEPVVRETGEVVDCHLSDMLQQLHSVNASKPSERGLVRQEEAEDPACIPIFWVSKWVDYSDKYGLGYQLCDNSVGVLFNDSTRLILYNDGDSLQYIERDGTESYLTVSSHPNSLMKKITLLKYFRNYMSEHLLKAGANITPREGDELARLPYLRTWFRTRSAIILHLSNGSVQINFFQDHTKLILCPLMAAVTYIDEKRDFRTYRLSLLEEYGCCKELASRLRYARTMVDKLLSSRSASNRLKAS
Chain of cAMP-dependent protein kinase catalytic subunit PRKX (P51817 whole entry): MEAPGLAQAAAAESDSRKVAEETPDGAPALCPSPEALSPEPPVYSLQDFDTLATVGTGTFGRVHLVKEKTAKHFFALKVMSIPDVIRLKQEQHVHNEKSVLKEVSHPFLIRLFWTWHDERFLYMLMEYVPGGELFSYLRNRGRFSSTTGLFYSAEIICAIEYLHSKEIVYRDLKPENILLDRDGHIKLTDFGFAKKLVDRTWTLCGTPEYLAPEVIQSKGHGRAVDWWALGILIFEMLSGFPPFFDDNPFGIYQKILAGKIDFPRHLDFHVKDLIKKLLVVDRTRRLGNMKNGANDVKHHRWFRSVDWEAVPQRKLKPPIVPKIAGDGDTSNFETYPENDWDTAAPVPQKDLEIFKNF

As for `Cc1ccc(C(=O)NC2(O)C(=O)c3ccccc3C2=O)cc1C`, the IC50 in assay [1] is recorded as > 67 µM (not active).

As for `O=[N+]([O-])c1c(Nc2ccccn2)cc(Cl)c2nonc12`, the EC50 was > 112 µM (not active) in assay [2], 3.95 µM (inconclusive) in the assay with BJ [3] and 2.43 µM (active) in the assay on BJ [5]. Also, the CC50 in assay [4] was 20.3 µM (active). Further, the IC50 in the assay “cells” is 0.32 µM (active); at Genome polyprotein, 20 µM (active). Moreover, the AC50 in the assay with INS1 is 6.13 µM (active); at Caspase-6, 1.06 µM (active); on Caspase-9, 17.4 µM (active).

On to `CC[C@@H](C)[C@H](CNC)NC[C@@H](Cc1cccc2ccccc12)NCCc1cccc(C(F)(F)F)c1`, for which the results for the EC50 in [6] and in assay [7] were > 150 µM (inconclusive) and 7.84 µM (active), respectively. Also, the IC50 in the assay on HEK293 is 8.67 µM (active). Also, the AC50 is 9.13 µM (active) in assay [8] and 27.5 µM (active) in assay [9].

As for `Cc1ccc(S(=O)(=O)/N=C2\C=C(Nc3cccc(C(=O)O)c3)C(=O)c3ccccc32)cc1`, on Nonstructural protein 1, the IC50 was 19.9 µM (active).

Turning to `CC(C)(CO)CNc1nccc(-c2c(-c3ccc(F)cc3)nc3c(CC4CC4)nccn23)n1`, the Ki is > 7.94 µM (inactive) in [10]; > 5.01 µM (inactive) in assay [11]; > 1.58 µM (inactive) in [12]; > 1.26 µM (inactive) in [13]; > 6.31 µM (inactive) in [14]; > 5.01 µM (inactive) in assay [15]. The Ki in assay [16] is 0.0316 µM (active); in assay [17] it was > 1.58 µM (inactive); in [18], > 2.51 µM (inactive); on Insulin receptor, > 5.01 µM (inactive); in assay [19], > 2 µM (inactive); in assay [20] it was > 6.31 µM (inactive). In addition, the Ki in assay [21] is > 6.31 µM (inactive); in assay [22], > 10 µM (inactive); in assay [23] it was > 0.631 µM (inactive); in assay [24], > 10 µM (inactive); in assay [25], > 10 µM (inactive); on Ephrin type-A receptor 2 it was > 3.16 µM (inactive). Besides, the Ki in assay [26] was > 1.58 µM (inactive); on Focal adhesion kinase 1 it was > 1.58 µM (inactive); in assay [27], > 5.01 µM (inactive); in [28], > 7.94 µM (inactive); in [29], 3.98 µM (active).

Broadly, the IC50 is the point on the concentration scale where inhibition reaches its midpoint. Broadly, the EC50 is the midpoint of the concentration-response curve. Usually CC50 stands for the concentration at which the toxic effect on the cells reaches its halfway point. Usually AC50 stands for the concentration giving half of the maximal activity seen. As a reminder, the Ki is a measure of affinity in units of concentration, obtained from inhibition or displacement.

The values above are taken from ChEMBL document CHEMBL1201862, “PubChem BioAssay data set” (2004).
